Data set [1] can be described thus: Quantum yield for the generation of singlet oxygen. In kind it is physicochemical. The conditions noted are these: aqueous solution.
For data set [2], the system named is R3230AC rat mammary adenocarcinoma cells. Put plainly: Phototoxicity toward R3230AC cells in culture. The class given is cell-based. The conditions noted are these: 10 μM, 24 h; 570-800 nm light, 0.9 J cm^−2; 24 h post-irradiation. How it is done: Similar results were obtained with R3230AC rat mammary adenocarcinoma cells in vitro. […] Light-treated cells and dark controls were incubated for 24 h and cell survival was determined. The surviving fraction, 24 h post-irradiation, is shown graphically in FIG. 4c.

A further data set deals with R3230AC cells. The data set can be described thus: Viability of R3230AC cells in the dark and after light. In kind it is cell-based, rat. Particulars: 10^−6 M; 24 h after 0.9 J cm^−2 of 590-750 nm light.
A further data set deals with cytochrome c oxidase. The data set can be described thus: Whole cell mitochondrial cytochrome c oxidase activity in R3230AC cells. In kind it is cell-based, rat. How it is done: In parallel experiments, mitochondrial cytochrome c oxidase activity was determined after exposure of R3230AC cells to the same porphyrins either in the dark or 24 h after light exposure (FIG. 8b). […] In contrast, MA-99 inhibited whole cell cytochrome c oxidase activity by 60% after a 24-h incubation period in R3230AC cells. […] Cytochrome c oxidase activity in R3230AC cells irradiated in the presence of MA-99 was inhibited by 95%, […] in enzyme activity compared to that obtained from cells incubated with MA-99, but not exposed to light.
Determination of the effects of dyes on intracellular mitochondrial cytochrome c oxidase are performed on cultured R3230AC cells. Cultures are seeded at 1×10^5 cells/well on 12-well plates in 1.0 mL MEM (described above). Twenty-four h later, sensitizers are added at concentrations ranging from 10^−4 to 10^−6 M. Cells are incubated in the dark with the sensitizers in MEM for 24 h in a 37° C. incubator. […] Cytochrome c oxidase is measured as above after cell suspensions are thawed and sonicated on ice after 30 s at 10 s bursts using a Branson probe sonifier set at a power of 2. The whole-cell lysate is added to the cytochrome c reaction mixture and results are expressed as the amount of cytochrome c oxidase activity per 10^5 cells.

The nature of data set [3]: Tissue distribution by fluorescence in tumor-bearing BALB/c mice. The procedure:
At various times after sensitizer administration, animals were sacrificed and sensitizer levels determined by direct extraction. In tumor-bearing animals (BALB/c mice or female Fischer rats), the concentration of sensitizer was determined by fluorescence spectroscopy where possible. At various time points post-injection of 5 μmol/kg of sensitizer or 90% of the LD10 (whichever is smaller), tissues were removed, weighed, homogenized, and frozen in liquid nitrogen (3-5 animals per time point). The homogenate, after thawing, was taken up in Solvable and the emission from sensitizer was quantified in terms of ng of sensitizer/mg of protein. With non-fluorescent sensitizers, sensitizer content was quantified spectrophotometrically. Distribution ratios were expressed as the uptake or retention of sensitizer in tumor relative to various normal tissues. Intensified digital fluorescence microscopy and/or confocal microscopy on frozen sections of the tumors, which were prepared from samples specified for this purpose, enabled us to assess intratumor sensitizer distributions.

Another data set has as its system Colo-26 tumors. Put plainly: PDT against implanted Colo-26 tumors in BALB/c mice. The class given is in vivo. Particulars: 135 J cm^−2; DH-105 2.5, DH-82 0.13, MA-99 0.15 mg/kg, 694 nm 4 h post-injection; Photofrin® 2.5 mg/kg, 630 nm 24 h. The procedure:
Core-modified porphyrin 6 gave a PDT response in vivo with 694-nm light in BALB/c mice bearing Colo-26 tumors. Animals treated with photosensitizer 6 at 3.25 mg (3.0 μmol)/kg and light required 10.3±0.8 d to reach 400-mm^3 tumor volume, which was more than double the time for control animals (4.3±1.0 d) receiving neither drug nor light (P <0.01).
The animals were irradiated 4 h post-injection with 135 J cm^−2 of 694-nm red light from a dye laser (75 mW cm^−2 for 30 min). […] For comparison purposes, BALB/C mice bearing Colo-26 tumors were given 2.5 mg (4.0 μmol)/kg of Photofrin® as a 5% aqueous dextrose solution and were irradiated 24 h later with 135 J cm^−2 of 630-nm laser light at a power of 75 mW cm^−2 for PDT with Photofrin®.
Animals initially were given i.v. (tail vein) injections of sensitizer at various concentrations (0.05to 5.0 μmol/kg). Mice were restrained at various times thereafter without anesthesia in specially designed holders. Fischer 344 female rats were chemically restrained at various times thereafter. In both models, tumors or normal back skin were exposed to light from a xenon arc lamp with appropriate filters or to a dye laser tuned to the absorption maximum determined by in vivo reflectance measurements. Power density of delivered light typically fell in the range of 10-200 mW cm^−2 evenly distributed to a spot size of roughly 1.5 cm and measured by a radiometer. Several dose rates were explored to examine role/limitation of available oxygen on the photodynamic process. Intratumor temperatures were measured with an Omega HYP-O microthermocouple and, when necessary, a stream of nitrogen gas was used to keep intratumor temperatures below 37° C. Animals were examined and measured daily for the first 14 days post treatment and every other day thereafter until the tumors reached 400 mm^3 in mice or until the tumors double in size for Fischer 344 female rats or for 90 days. Tumor size were measured in two dimensions with a caliper. Time to 400 mm^3 or volume doubling times of tumors from control and PDT-treated groups (8-12 animals per group) were compared statistically using the SAS statistical program (SAS, Inc., Cary, N.C.). A P-value of <0.05 is considered significant. The degree of damage to the normal skin within the irradiation field also were noted. Disappearance of tumor with minimal damage to normal skin is the most desirable response. Animals are considered cured if no tumor regrowth occurs by 90 days. In all studies, three control groups were utilized in addition to the treatment group receiving both sensitizer and light: 1) a complete control receiving neither drug nor light, 2) a group receiving sensitizer only, and 3) a group receiving light only. Representative animals from each of the treatment groups were processed for histology immediately, one day, or two weeks after irradiation. Step sections through the tumor were used to define the boundaries of tumor cell damage and death as a function of distance from the skin surface.

[4] abbreviates: BALB/c mice with Colo-26 tumors, DH-82 5 mg/kg, MA-99 2.5 mg/kg.

In the case of `O=C([O-])COc1ccc(-c2c3nc(c(-c4ccc(F)cc4)c4ccc(s4)c(-c4ccc(F)cc4)c4nc(c(-c5ccc(OCC(=O)[O-])cc5)c5ccc2s5)C=C4)C=C3)cc1.[Na+].[Na+]` [MA-99], the “quantum yield for the generation of singlet oxygen φ(^1O2)” value in data set [1] worked out at 0.71 ± 0.02. Moreover, in data set [2], the “phototoxicity relative to Photofrin® toward R3230AC cells (surviving fraction, FIG. 4c)” value is on record as “more phototoxic than Photofrin®”. Also, the “reduction in cell number after light exposure” value in the data set on R3230AC cells is on record as 40%. Besides, the “inhibition of whole cell cytochrome c oxidase activity in the dark” value with cytochrome c oxidase (24-h incubation, dark) is 60%. In the data set on cytochrome c oxidase (24 h after 0.9 J cm^−2 of 590-750 nm light, vs control untreated cells), the “reduction of cytochrome c oxidase activity after irradiation” value is 95%. Besides, the “concentration in tumor 24 h post-injection” value in data set [3] (2.5 mg (3.2 μmol)/kg of MA-99, Colo-26 tumors) is listed as 0.65±0.10 μg/mg of protein. Further, the “increase in photosensitizer uptake in tumor relative to compound 6” value in data set [3] (24 h post-injection) is “greater than twenty-fold increase”. For the same compound, in data set [3] (setting [4]), the “concentration in skin at 1 h post-injection” value is given as 0.09±0.04 μg/mg of protein and the “concentration in skin at 24 h post-injection” value was 0.01±0.01 μg/mg of protein. Also, in data set [3] (liver, kidney, lung, heart, spleen, muscle, skin), the “concentration in tumor versus other tissues at 24 h post-injection” value is given as “higher in the tumor than in the other tissues examined”. For the same compound, in the data set on Colo-26 tumors, the “cures (no tumor regrowth 90 days post-treatment)” value is on record as “five cures” and the “mean time to 400 mm^3 of the animals not cured” value is 23 ± 7 days.
